The kinase profiling compilation of Christmann-Franck et al. (2016)

What was measured:
Test in all cases: KINOMEscan competition binding
Settings in all cases: compound 0.1 µM
INSR (human) = INSR (human) (UniProt P06213)
MAP3K13 (human) = MAP3K13 (human) (UniProt O43283)
MAPK14 (human) = MAPK14 (human) (UniProt Q16539)
[1] = tested on: ABL1 (human), P00519 [E255K]
MAPK4 (human) = MAPK4 (human) (UniProt P31152)
MYLK (human) = MYLK (human) (UniProt Q15746)
CLK2 (human) = CLK2 (human) (UniProt P49760)
Sequence of CLK2 (human) (P49760 whole entry, looked up): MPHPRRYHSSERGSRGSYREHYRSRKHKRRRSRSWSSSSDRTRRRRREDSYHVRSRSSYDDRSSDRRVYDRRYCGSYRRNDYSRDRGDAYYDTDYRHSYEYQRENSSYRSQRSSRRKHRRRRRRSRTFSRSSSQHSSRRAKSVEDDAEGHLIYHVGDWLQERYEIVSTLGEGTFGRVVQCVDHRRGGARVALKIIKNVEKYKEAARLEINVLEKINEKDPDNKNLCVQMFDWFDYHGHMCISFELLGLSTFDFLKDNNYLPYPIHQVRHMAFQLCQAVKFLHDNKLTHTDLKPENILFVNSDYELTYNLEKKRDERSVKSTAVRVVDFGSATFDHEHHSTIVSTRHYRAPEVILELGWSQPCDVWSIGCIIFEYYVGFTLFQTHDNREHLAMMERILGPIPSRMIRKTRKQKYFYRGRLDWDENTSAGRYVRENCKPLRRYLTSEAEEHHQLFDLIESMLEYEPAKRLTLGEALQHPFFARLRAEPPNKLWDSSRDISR

CAMK2D (human) = CAMK2D (human) (UniProt Q13557)
CLK3 (human) = CLK3 (human) (UniProt P49761)
PIP5K1C (human) = PIP5K1C (human) (UniProt O60331)
CSNK1G2 (human) = CSNK1G2 (human) (UniProt P78368)
NEK1 (human) = NEK1 (human) (UniProt Q96PY6)
Sequence of NEK1 (human) (Q96PY6 whole entry, looked up): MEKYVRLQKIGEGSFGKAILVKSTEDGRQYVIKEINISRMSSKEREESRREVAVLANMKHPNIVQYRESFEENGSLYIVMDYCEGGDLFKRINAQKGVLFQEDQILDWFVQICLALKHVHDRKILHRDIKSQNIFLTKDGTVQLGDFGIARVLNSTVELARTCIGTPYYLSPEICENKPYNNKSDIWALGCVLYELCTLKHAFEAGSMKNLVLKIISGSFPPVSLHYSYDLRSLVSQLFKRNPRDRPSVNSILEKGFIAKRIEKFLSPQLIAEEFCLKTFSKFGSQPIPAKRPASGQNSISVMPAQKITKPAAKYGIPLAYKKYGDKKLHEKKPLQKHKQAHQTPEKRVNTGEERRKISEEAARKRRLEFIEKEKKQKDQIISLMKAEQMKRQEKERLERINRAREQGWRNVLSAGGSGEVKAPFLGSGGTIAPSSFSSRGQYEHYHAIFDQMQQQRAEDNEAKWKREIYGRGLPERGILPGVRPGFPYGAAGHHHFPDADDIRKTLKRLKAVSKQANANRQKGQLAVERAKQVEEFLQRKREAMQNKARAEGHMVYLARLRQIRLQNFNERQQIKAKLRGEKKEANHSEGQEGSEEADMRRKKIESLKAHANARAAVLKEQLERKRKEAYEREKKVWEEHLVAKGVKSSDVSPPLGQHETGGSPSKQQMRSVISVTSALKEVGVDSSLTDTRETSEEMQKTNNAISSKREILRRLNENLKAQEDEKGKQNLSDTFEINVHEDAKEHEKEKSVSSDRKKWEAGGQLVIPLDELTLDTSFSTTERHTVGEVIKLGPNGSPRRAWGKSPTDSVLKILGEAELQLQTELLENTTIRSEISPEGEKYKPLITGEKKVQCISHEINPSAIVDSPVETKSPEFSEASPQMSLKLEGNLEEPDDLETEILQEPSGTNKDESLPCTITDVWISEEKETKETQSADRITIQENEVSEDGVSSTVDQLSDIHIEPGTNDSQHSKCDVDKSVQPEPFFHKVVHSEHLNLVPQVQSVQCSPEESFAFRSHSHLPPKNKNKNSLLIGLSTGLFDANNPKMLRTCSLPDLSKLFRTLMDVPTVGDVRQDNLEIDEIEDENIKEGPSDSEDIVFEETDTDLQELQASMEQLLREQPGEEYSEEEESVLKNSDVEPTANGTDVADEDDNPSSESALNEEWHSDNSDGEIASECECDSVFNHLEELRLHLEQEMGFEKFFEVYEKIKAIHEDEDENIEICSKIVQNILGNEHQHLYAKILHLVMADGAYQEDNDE

DSTYK (human) = DSTYK (human) (UniProt Q6XUX3)
ICK (human) = ICK (human) (UniProt Q9UPZ9)
BRAF (human) = BRAF (human) (UniProt P15056)
CDK16 (human) = CDK16 (human) (UniProt Q00536)
RPS6KA3 KD2 (human) = RPS6KA3 KD2 (human) (UniProt P51812)
CSNK1A1 (human) = CSNK1A1 (human) (UniProt P48729)
CSNK2A2 (human) = CSNK2A2 (human) (UniProt P19784)
MAP3K9 (human) = MAP3K9 (human) (UniProt P80192)
Sequence of MAP3K9 (human) (P80192 whole entry, looked up): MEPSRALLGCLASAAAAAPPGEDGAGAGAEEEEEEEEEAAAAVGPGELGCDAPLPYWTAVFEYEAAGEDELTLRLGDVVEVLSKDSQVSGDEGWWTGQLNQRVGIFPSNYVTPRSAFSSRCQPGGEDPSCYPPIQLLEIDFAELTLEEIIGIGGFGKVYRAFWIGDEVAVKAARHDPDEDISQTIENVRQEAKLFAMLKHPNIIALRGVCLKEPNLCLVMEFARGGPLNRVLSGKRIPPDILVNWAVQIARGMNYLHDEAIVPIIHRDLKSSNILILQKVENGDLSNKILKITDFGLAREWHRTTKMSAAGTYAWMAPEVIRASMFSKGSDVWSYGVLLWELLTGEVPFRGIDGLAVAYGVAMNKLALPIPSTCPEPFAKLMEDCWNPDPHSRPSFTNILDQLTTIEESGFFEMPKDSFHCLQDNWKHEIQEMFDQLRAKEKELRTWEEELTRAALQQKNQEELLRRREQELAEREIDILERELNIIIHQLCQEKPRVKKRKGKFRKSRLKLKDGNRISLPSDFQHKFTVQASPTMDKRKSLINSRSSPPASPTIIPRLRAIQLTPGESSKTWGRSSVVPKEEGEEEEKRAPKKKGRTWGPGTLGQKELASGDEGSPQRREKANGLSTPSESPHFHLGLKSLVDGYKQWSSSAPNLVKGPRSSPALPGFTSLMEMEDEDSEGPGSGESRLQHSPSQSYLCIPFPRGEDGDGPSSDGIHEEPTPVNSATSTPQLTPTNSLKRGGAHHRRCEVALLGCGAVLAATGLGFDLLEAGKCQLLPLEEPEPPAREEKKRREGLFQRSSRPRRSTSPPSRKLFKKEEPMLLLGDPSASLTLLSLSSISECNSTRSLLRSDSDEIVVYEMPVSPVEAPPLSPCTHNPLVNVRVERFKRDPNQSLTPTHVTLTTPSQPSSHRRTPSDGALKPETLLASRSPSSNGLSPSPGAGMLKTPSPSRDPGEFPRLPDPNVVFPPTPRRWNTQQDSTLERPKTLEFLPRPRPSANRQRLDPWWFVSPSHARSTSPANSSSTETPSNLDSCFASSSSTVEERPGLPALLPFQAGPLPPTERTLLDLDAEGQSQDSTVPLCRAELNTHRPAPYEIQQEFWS

SRPK1 (human) = SRPK1 (human) (UniProt Q96SB4)
[2] = tested on: PIK3CA (human), P42336 [C420R]
PRKCD (human) = PRKCD (human) (UniProt Q05655)
CRK2 (P.falciparum) = CRK2 (P.falciparum) (UniProt P61075)
Sequence of CRK2 (P.falciparum) (P61075 whole entry, looked up): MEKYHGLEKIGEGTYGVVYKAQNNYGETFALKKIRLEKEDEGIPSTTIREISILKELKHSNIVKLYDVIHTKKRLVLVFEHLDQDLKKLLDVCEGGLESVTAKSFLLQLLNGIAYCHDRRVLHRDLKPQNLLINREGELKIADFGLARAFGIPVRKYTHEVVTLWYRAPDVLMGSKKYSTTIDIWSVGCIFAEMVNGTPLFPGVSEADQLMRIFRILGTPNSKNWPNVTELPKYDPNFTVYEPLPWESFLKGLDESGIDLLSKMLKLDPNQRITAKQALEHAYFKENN

RPS6KA6 KD1 (human) = RPS6KA6 KD1 (human) (UniProt Q9UK32)
[3] = tested on: FLT3 (human), P36888 [D835H]
PDPK1 (human) = PDPK1 (human) (UniProt O15530)
EPHB2 (human) = EPHB2 (human) (UniProt P29323)
SBK1 (human) = SBK1 (human) (UniProt Q52WX2)
FLT1 (human) = FLT1 (human) (UniProt P17948)
Sequence of FLT1 (human) (P17948 whole entry, looked up): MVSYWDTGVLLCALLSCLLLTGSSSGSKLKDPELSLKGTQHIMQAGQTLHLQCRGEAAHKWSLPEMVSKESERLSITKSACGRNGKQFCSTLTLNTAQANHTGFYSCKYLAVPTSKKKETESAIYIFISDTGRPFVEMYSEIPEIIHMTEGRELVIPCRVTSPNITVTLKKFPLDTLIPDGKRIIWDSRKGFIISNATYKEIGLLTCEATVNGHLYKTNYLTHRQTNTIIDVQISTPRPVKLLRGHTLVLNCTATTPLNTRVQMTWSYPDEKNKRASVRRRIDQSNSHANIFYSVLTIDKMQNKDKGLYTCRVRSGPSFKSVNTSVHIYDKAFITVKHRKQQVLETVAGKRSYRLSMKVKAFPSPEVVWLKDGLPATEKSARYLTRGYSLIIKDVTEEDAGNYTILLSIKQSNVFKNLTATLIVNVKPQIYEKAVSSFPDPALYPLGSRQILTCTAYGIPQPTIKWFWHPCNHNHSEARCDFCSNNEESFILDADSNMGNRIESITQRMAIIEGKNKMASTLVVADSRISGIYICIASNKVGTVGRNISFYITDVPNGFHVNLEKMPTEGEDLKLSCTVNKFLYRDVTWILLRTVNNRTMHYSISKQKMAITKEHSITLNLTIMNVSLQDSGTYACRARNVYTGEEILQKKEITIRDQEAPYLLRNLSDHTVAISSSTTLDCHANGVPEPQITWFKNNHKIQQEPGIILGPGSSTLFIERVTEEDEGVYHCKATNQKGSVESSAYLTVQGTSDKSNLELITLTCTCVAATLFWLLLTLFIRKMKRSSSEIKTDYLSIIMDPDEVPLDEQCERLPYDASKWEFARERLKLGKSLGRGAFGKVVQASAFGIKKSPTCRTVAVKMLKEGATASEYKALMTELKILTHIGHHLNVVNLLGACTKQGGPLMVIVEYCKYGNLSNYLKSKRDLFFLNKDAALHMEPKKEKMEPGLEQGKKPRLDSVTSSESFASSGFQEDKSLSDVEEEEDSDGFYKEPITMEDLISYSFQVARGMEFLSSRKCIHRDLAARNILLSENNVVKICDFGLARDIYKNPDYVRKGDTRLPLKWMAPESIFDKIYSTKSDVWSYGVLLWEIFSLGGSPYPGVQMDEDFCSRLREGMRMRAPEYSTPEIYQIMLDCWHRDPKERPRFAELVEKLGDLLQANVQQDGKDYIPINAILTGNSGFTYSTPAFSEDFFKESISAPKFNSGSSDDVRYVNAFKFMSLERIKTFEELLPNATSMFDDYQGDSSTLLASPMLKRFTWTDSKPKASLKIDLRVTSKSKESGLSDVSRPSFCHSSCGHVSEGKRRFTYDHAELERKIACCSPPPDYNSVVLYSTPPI

MAP4K5 (human) = MAP4K5 (human) (UniProt Q9Y4K4)
[4] = tested on: KIT (human), P10721 [V559D/V654A]
RET (human) = RET (human) (UniProt P07949)
MAP3K1 (human) = MAP3K1 (human) (UniProt Q13233)
PLK1 (human) = PLK1 (human) (UniProt P53350)

Sequence of MAPK4 (human) (P31152 whole entry, looked up): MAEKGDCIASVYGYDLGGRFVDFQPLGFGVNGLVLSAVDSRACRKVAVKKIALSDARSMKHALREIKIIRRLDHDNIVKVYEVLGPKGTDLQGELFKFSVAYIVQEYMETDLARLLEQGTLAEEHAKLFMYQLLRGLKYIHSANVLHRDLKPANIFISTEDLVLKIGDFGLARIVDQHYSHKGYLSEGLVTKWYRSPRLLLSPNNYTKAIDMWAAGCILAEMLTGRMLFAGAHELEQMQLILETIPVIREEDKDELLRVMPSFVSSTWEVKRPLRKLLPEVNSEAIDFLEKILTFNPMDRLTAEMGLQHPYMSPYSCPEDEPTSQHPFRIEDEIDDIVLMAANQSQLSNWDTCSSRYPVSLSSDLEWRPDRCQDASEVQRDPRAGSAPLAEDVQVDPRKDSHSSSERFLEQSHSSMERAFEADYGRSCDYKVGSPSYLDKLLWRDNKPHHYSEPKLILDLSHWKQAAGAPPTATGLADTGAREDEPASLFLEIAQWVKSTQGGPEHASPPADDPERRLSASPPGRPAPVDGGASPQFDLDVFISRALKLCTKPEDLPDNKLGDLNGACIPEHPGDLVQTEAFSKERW

Compound `CCc1ccc(C(=O)Nc2cc(CN3CCN(C)CC3)cc(C(F)(F)F)c2)cc1C#Cc1cnc2ccnn2c1` has a kinase still bound, per cent of control (INSR (human)) of 86%, a kinase still bound, per cent of control (MAP3K13 (human)) of 71% and a kinase still bound, per cent of control (MAPK14 (human)) of 85%. It also gave a kinase still bound, per cent of control [1] of 100%, a kinase still bound, per cent of control (MAPK4 (human)) of 90% and a kinase still bound, per cent of control (MYLK (human)) of 100%. The kinase still bound, per cent of control (CLK2 (human)) was 85%, the kinase still bound, per cent of control (CAMK2D (human)) was 78% and the kinase still bound, per cent of control (CLK3 (human)) was 91%. The kinase still bound, per cent of control (PIP5K1C (human)) was 96%, the kinase still bound, per cent of control (CSNK1G2 (human)) was 100% and the kinase still bound, per cent of control (NEK1 (human)) was 93%. For the same compound, the kinase still bound, per cent of control (DSTYK (human)) was 100%, the kinase still bound, per cent of control (ICK (human)) was 100% and the kinase still bound, per cent of control (BRAF (human)) was 53%. For the same compound, the kinase still bound, per cent of control (CDK16 (human)) was 100%, the kinase still bound, per cent of control (RPS6KA3 KD2 (human)) was 100% and the kinase still bound, per cent of control (CSNK1A1 (human)) was 100%. It also gave a kinase still bound, per cent of control (CSNK2A2 (human)) of 100%, a kinase still bound, per cent of control (MAP3K9 (human)) of 100% and a kinase still bound, per cent of control (SRPK1 (human)) of 100%. The kinase still bound, per cent of control [2] was 100%, the kinase still bound, per cent of control (PRKCD (human)) was 100% and the kinase still bound, per cent of control (CRK2 (P.falciparum)) was 100%. The kinase still bound, per cent of control (RPS6KA6 KD1 (human)) was 100%, the kinase still bound, per cent of control [3] was 83% and the kinase still bound, per cent of control (PDPK1 (human)) was 100%. The kinase still bound, per cent of control (EPHB2 (human)) was 100%, the kinase still bound, per cent of control (SBK1 (human)) was 73% and the kinase still bound, per cent of control (FLT1 (human)) was 84%. It also gave a kinase still bound, per cent of control (MAP4K5 (human)) of 100%, a kinase still bound, per cent of control [4] of 100% and a kinase still bound, per cent of control (RET (human)) of 52%. It also gave a kinase still bound, per cent of control (MAP3K1 (human)) of 100% and a kinase still bound, per cent of control (PLK1 (human)) of 80%.
